Patent publication US20090227619A1, “Harmine derivatives, intermediates used in their preparations, preparation processes and use therefo” (priority 2003, published 2009)
Read-outs that look alike come from different tables or passages of the source.

Legend:
[1] = tested on: PLA-801; assay: In vitro cytotoxicity, IC50 by MTT method, PLA-801; assay type: cell-based
Summary of the method: (§1)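 Cells in RPMI1640 with 10% FBS at 37° C, 5% CO2 were seeded at 10^5/ml and exposed to a compound concentration gradient for 48 h, at least three replicates, solvent controls.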

[2] = tested on: Hela; assay: In vitro cytotoxicity, IC50 by MTT method, Hela; assay type: cell-based; details: Homo sapiens
Summary of the method: as §1

[3] = tested on: Lovo; assay: In vitro cytotoxicity, IC50 by MTT method, Lovo; assay type: cell-based; details: Homo sapiens
Summary of the method: as §1

[4] = tested on: Bel-7402; assay: In vitro cytotoxicity, IC50 by MTT method, Bel-7402; assay type: cell-based; details: Homo sapiens, Bel-7402
Summary of the method: as §1

[5] = tested on: HepG2; assay: In vitro cytotoxicity, IC50 by MTT method, HepG2; assay type: cell-based, human; details: Homo sapiens
Summary of the method: as §1

[6] = tested on: NIH3T3; assay: In vitro cytotoxicity, IC50 by MTT method, NIH3T3; assay type: cell-based; details: Mus musculus
Summary of the method: as §1

[7] = tested on: S180 sarcoma; details: S180 sarcoma; for Body weight of the animals, beginning, First time / Body weight of the animals, end, First time / Inhibition rate, First time / Weight of the tumor X ± SD, First time / Body weight of the animals, beginning, Second time / Body weight of the animals, end, Second time / Inhibition rate, Second time: ip × 10qd; for Inhibition rate (%) S180 sarcomata: comparison table 43, in vivo
[8] = tested on: Lewis lung cancer; details: Lewis lung cancer; for Body weight of the animals, end, First time / Body weight of the animals, end, Second time: ip × 10qd; for Inhibition rate (%) Lewis cancer: comparison table 43, in vivo;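 on all read-outs here: mice implanted subcutaneously in the axilla with Lewis lung tumor cells, treated starting the following day, killed roughly three weeks after implantation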
Excerpt: There was one group of 8 to 10 mice C57BL/6 and Kunming mice for the anti-tumor tests and two groups of mice for negative control.
(3) Sources of tumors: Lewis lung cancer cells and S180 sarcoma in mice, which were sub-cultured and maintained by Pharmacological Center of Shanghai Pharmaceutical Industrial Research Institute.
All samples were weighed and added a small amount of Tween-80 to facilitate dissolution during the experiment, and then 0.5% CMC-Na solution was gradually added to achieve the desired concentration. The volume for experiment was 0.5 ml/20 g mouse.
The medicaments were intraperitoneally administered once a day continuously for 10 days.
For the negative control group, a vehicle of the same volume was intraperitoneally administered once a day continuously for 10 days. For the positive control group, CTX was administered in the dosage of 30 mg/kg once a day continuously for 7 days.
In vivo anti-tumor subcutaneous vaccination in the axilla was employed. Wildly grown tumor source was taken under sterile conditions to form a cell suspension of about 1×10^7 ml by homogenization method. For a corresponding mouse host, the suspension was injected in the axilla in an amount of 0.2 ml/mouse. The next day, the medicaments were administered according to the design of the tests. About three weeks later, all the groups of animals were executed. The tumors were taken from the animals and weighed. The inhibition rate of tumors was calculated according to the following formula:
T: average tumor weight of treated group; C: average tumor weight of negative control group.

[9] = tested on: Kunming mice; details: for Death rate: single i.p.
Description: (§2) Five grades of dosages for each sample according to the results of the preliminary test, each dosage being 0.8 larger than the previous one
(§3) During the experiment, each sample was added a small amount of Tween-80 to facilitate dissolution after the sample was weighed, and then 0.5% CMC-Na solution was gradually added to achieve the desired concentration. The experimental volume was 0.5 ml/20 g mouse.
(§4) Single injection via intraperitoneal (i.p.) to different groups mice.
(§5) Kunming mice were divided into different groups randomly according to their sex. The medicament was intraperitoneally administered to each group of mice according to the dosage setting. After the administration of the medicaments, mice were observed continuously for the first 2 h for any gross behavioral changes and deaths. Dead animals were dissected and examined for any possible organ damage. […] Conditions of animals died within two week were recorded. After two weeks, all survived animals were sacrificed and checked macroscopically for possible damage to the heart, liver, kidneys and so on. Viscera that had substantive pathological changes were pathologically examined.

[10] = tested on: BGC-823; assay: In vitro cytotoxicity, IC50 by MTT method, BGC-823; assay type: cell-based; details: Homo sapiens, BGC-823
Summary of the method: as §1

[11] = in vivo; details: both, mouse, ip
Description: as §2, §3, §4, §5

[12] = 50% male 50% female mice, 240 mg/kg
[13] = 50% male 50% female mice, 300 mg/kg
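Wherever Death rate is given: acute toxicity in Kunming mice grouped by sex, one intraperitoneal dose at five graded levels in Tween-80 plus 0.5% CMC-Na, deaths monitored over two weeks.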
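Wherever LD50 is given: acute toxicity in Kunming mice grouped by sex, one intraperitoneal dose at five graded levels in Tween-80 plus 0.5% CMC-Na, deaths monitored over two weeks.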
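Wherever MTD is given: acute toxicity in Kunming mice grouped by sex, one intraperitoneal dose at five graded levels in Tween-80 plus 0.5% CMC-Na, deaths monitored over two weeks.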
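Wherever Sex is given: acute toxicity in Kunming mice grouped by sex, one intraperitoneal dose at five graded levels in Tween-80 plus 0.5% CMC-Na, deaths monitored over two weeks.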

## CCOC(=O)c1cc2c([nH]c3ccccc32)c(C)n1 [Compound 11, ethyl 1-methyl-β-carboline-3-carboxylate]
[1]; PLA-801, MTT, read-out: IC50
  IC50: 260 µM
[2]; Hela, MTT, read-out: IC50
  IC50: 100 µM
[3]; Lovo, MTT, read-out: IC50
  IC50: 80 µM
[4]; BeI7402, MTT, read-out: IC50
  IC50: 230 µM
[5]; HepG2, MTT, read-out: IC50
  IC50: 90 µM
[6]; NIH3T3, MTT, read-out: IC50
  IC50: 100 µM
[7]; Dosage 25 (mg/ml)
  Body weight of the animals, beginning, First time: 19.5 g
  Body weight of the animals, end, First time: 26.3 g
  Inhibition rate, First time: 34.74%
  Weight of the tumor X ± SD, First time: 1.86 ± 0.18 g
  Body weight of the animals, beginning, Second time: 20.4 g
  Body weight of the animals, end, Second time: 24.2 g
  Inhibition rate, Second time: 31.93%
[7]; Dosage 25, ip × 10qd
  Weight of the tumor X ± SD, Second time: 1.94 ± 0.16 g
[7]; Dosage 50 (mg/ml)
  Body weight of the animals, beginning, First time: 19.5 g
  Body weight of the animals, end, First time: 25.9 g
  Inhibition rate, First time: 44.21%
  Weight of the tumor X ± SD, First time: 1.59 ± 0.16 g
  Body weight of the animals, beginning, Second time: 20.6 g
  Body weight of the animals, end, Second time: 23.9 g
  Inhibition rate, Second time: 43.16%
[7]; Dosage 50, ip × 10qd
  Weight of the tumor X ± SD, Second time: 1.62 ± 0.38 g
[7]
  Inhibition rate (%) S180 sarcomata: 44.21%
[8]; Dosage 25 (mg/ml)
  Body weight of the animals, end, First time: 23.4 g
  Body weight of the animals, end, Second time: 24.5 g
[8]; Dosage 25, ip × 10qd
  Body weight of the animals, beginning, First time: 18.7 g
  Inhibition rate, First time: 29.08%
  Weight of the tumor X ± SD, First time: 1.78 ± 0.16 g
  Body weight of the animals, beginning, Second time: 19.9 g
  Inhibition rate, Second time: 33.05%
  Weight of the tumor X ± SD, Second time: 1.58 ± 0.09 g
[8]; Dosage 50 (mg/ml)
  Body weight of the animals, end, First time: 23.0 g
  Body weight of the animals, end, Second time: 23.8 g
[8]; Dosage 50, ip × 10qd
  Body weight of the animals, beginning, First time: 18.3 g
  Inhibition rate, First time: 44.22%
  Weight of the tumor X ± SD, First time: 1.40 ± 0.16 g
  Body weight of the animals, beginning, Second time: 19.8 g
  Inhibition rate, Second time: 42.8%
  Weight of the tumor X ± SD, Second time: 1.35 ± 0.14 g
[8]
  Inhibition rate (%) Lewis cancer: 44.22%
[9]; [12]
  Death rate: 90
[9]; [13]
  Death rate: 100
[9]; female mice, 240 mg/kg
  Death rate: 100
[9]; female mice, 300 mg/kg
  Death rate: 100
[9]; male mice, 240 mg/kg
  Death rate: 80
[9]; male mice, 300 mg/kg
  Death rate: 100
[9]; mouse, in vivo, ip
  LD50: 159 to 211 mg/kg
[10]; BGC823, MTT, read-out: IC50
  IC50: 110 µM
[11]; Kunming
  LD50 at 2 weeks: 183 mg/kg

## COC(=O)c1cc2c([nH]c3ccccc32)c(-c2ccc(O)cc2)n1 [Compound 16, methyl 1-(4-hydroxyphenyl)-β-carboline-3-carboxylate]
[1]; PLA-801, MTT, read-out: IC50
  IC50: 1020 µM
[2]; Hela, MTT, read-out: IC50
  IC50: 150 µM
[3]; Lovo, MTT, read-out: IC50
  IC50: 620 µM
[4]; BeI7402, MTT, read-out: IC50
  IC50: 1080 µM
[5]; HepG2, MTT, read-out: IC50
  IC50: > 5000 µM
[6]; NIH3T3, MTT, read-out: IC50
  IC50: 2180 µM
[7]
  Inhibition rate (%) S180 sarcomata: 32.96%
[8]
  Inhibition rate (%) Lewis cancer: 37.86%
[9]; [12]
  Death rate: 0
[9]; [13]
  Death rate: 30
[9]; both, Kunming, mouse, in vivo, ip, 2 weeks
  Sex: 240
[9]; female mice, 240 mg/kg
  Death rate: 0
[9]; female mice, 300 mg/kg
  Death rate: 40
[9]; male mice, 240 mg/kg
  Death rate: 0
[9]; male mice, 300 mg/kg
  Death rate: 20
[10]; BGC823, MTT, read-out: IC50
  IC50: 970 µM
[11]; Kunming
  MTD at 2 weeks: 240 mg/kg

## O=C(O)c1cc2c3ccccc3n(CCCc3ccccc3)c2cn1 [Compound 48, 9-phenylpropyl-β-carboline-3-carboxylic acid]
[1]; PLA-801 cell strain, read-out: IC50 PLA-801
  IC50: 260 µM
[2]; Hela cell strain, read-out: IC50 Hela
  IC50: 100 µM
[3]; Lovo cell strain, read-out: IC50 Lovo
  IC50: 10 µM
[4]; Bel7402 cell strain, read-out: IC50 Bel7402
  IC50: 50 µM
[5]; HepG2 cell strain, read-out: IC50 HepG2
  IC50: 30 µM
[6]; NIH3T3 cell strain, read-out: IC50 NIH3T3
  IC50: 30 µM
[7]; Dosage 50 (mg/ml)
  Body weight of the animals, beginning, First time: 19.4 g
  Body weight of the animals, end, First time: 24.8 g
  Inhibition rate, First time: 19.48%
  Weight of the tumor X ± SD, First time: 2.15 ± 0.39 g
  Body weight of the animals, beginning, Second time: 18.6 g
  Body weight of the animals, end, Second time: 25.8 g
  Inhibition rate, Second time: 21.85%
[7]; Dosage 50, ip × 10qd
  Weight of the tumor X ± SD, Second time: 2.11 ± 0.25 g
[7]; Dosage 100 (mg/ml)
  Body weight of the animals, beginning, First time: 19.4 g
  Body weight of the animals, end, First time: 24.8 g
  Inhibition rate, First time: 31.09%
  Weight of the tumor X ± SD, First time: 1.84 ± 0.11 g
  Body weight of the animals, beginning, Second time: 18.5 g
  Body weight of the animals, end, Second time: 26.0 g
  Inhibition rate, Second time: 32.22%
[7]; Dosage 100, ip × 10qd
  Weight of the tumor X ± SD, Second time: 1.83 ± 0.16 g
[7]
  Inhibition rate (%) S180 sarcomata: 32.22%
[8]; Dosage 50 (mg/ml)
  Body weight of the animals, end, First time: 25.3 g
  Body weight of the animals, end, Second time: 25.0 g
[8]; Dosage 50, ip × 10qd
  Body weight of the animals, beginning, First time: 20.1 g
  Inhibition rate, First time: 25.10%
  Weight of the tumor X ± SD, First time: 1.82 ± 0.10 g
  Body weight of the animals, beginning, Second time: 19.0 g
  Inhibition rate, Second time: 28.67%
  Weight of the tumor X ± SD, Second time: 2.09 ± 0.19 g
[8]; Dosage 100 (mg/ml)
  Body weight of the animals, end, First time: 24.8 g
  Body weight of the animals, end, Second time: 25.2 g
[8]; Dosage 100, ip × 10qd
  Body weight of the animals, beginning, First time: 19.8 g
  Inhibition rate, First time: 34.98%
  Weight of the tumor X ± SD, First time: 1.58 ± 0.08 g
  Body weight of the animals, beginning, Second time: 19.3 g
  Inhibition rate, Second time: 39.59%
  Weight of the tumor X ± SD, Second time: 1.77 ± 0.15 g
[8]
  Inhibition rate (%) Lewis cancer: 39.59%
[9]; [12]
  Death rate: 60
[9]; [13]
  Death rate: 100
[9]; female mice, 240 mg/kg
  Death rate: 60
[9]; female mice, 300 mg/kg
  Death rate: 100
[9]; male mice, 240 mg/kg
  Death rate: 60
[9]; male mice, 300 mg/kg
  Death rate: 100
[9]; mouse, in vivo, ip
  LD50: 193 to 249 mg/kg
[10]; BGC823 cell strain, read-out: IC50 BGC823
  IC50: 30 µM
[11]
  LD50 at 2 weeks: 219 mg/kg
